Patent publication US11760785B2, “Glucose transporter inhibitor-modified insulin for glucose-responsive insulin delivery” (NORTH CAROLINA STATE UNIVERSITY, priority 2017, dated 2023)
Blank lines part the entries; values can stand above or below the compound they belong to.

Assays:
[1] = system: glucose transporter (GLUT) on erythrocyte ghosts; experiment: binding to erythrocyte ghosts as the model of glucose transporter
Text: In order to conjugate GLUT inhibitors to […], the GLUT inhibitors were first functionalized with an amino group to facilitate their conjugation to insulin (FIGS. 2 and 3). […] For inhibitor 2 (In2), an amino group was introduced through Michael addition reaction while maintaining the main structures unchanged. In order to conjugate insulin to forskolin and inhibitor 2, insulin was firstly reacted with Traut's reagent to introduce a thiol group and used directly for conjugating inhibitors, which was also beforehand reacted with SMCC crosslinker.

[2] = system: type 1 diabetic mouse model induced by STZ; experiment: in vivo therapeutic efficacy, blood glucose levels in type 1 diabetic mice; conditions: STZ type 1 diabetic mice; 300 IU/kg insulin conjugate, 150 IU/kg free insulin
Text: PBS was used as a control. The dose was set to 300 IU/kg for insulin conjugate and 150 IU/kg for free insulin to avoid severe hypoglycemia. Error bars represent the S.D. of three independent experiments (n=3).
(§1) PBS was used as a control.

[3] = assay type: physicochemical
Text: Herein, a new strategy utilizing the in situ living cells as the carrier for insulin was developed. […] In addition, the introduction of water-insoluble inhibitors onto insulin can greatly reduce its water solubility at pH 7.4. After subcutaneously injected, insulin conjugate formed a depot beneath the skin, which can slowly release insulin conjugate into the blood. Then, insulin conjugate reaches the GLUT on living cells, including adipose cells, muscle cells and blood cells, during blood circulation and consequently establishing an insulin pool. Of note, the GLUT pool on living cells can also buffer the high level of insulin in blood in the initial period post-injection and works as the reservoir of insulin to smooth the level of blood insulin. The adsorption of insulin-conjugate to cell membranes is in a dynamic balance with insulin conjugate in interstitial fluid and blood under a normoglycemic state. The insulin conjugate binding on living cell membranes can be released in a glucose-triggered manner under a hyperglycemic state because of the competitive binding from elevated glucose level.
In order to conjugate GLUT inhibitors to […], the GLUT inhibitors were first functionalized with an amino group to facilitate their conjugation to insulin (FIGS. 2 and 3). For forskolin, the introduction of the amino group and alkyl chains can enhance its binding affinity to GLUT. […]

[4] = system: diabetic mice; experiment: multiple intraperitoneal glucose tolerance test; assay type: in vivo, mouse; conditions: subcutaneous injection, 400 IU/kg insulin conjugate
Text: Insulin-F was subcutaneously injected. The dose was set to 400 IU/kg for insulin conjugate. Error bars represent the S.D. of three independent experiments (n=5).
as §1

[5] = system: diabetic mice; conditions: mouse, in vivo, sc
Method: The in vivo therapeutic efficacy of insulin conjugates was evaluated in type 1 diabetic mouse model induced by STZ. The diabetic mice were assigned to four groups treated with insulin conjugates or native insulin. PBS was used as a control.

Compound: C=C1[C@@H](C)[C@H]2[C@H](Cc3ccccc3)NC(=O)[C@]23OC(=O)/C=C/[C@H](O)CCC[C@@H](C)C/C=C/[C@H]3[C@@H]1O [cytochalasin B, reference compound]
inhibition of insulin-F binding on erythrocyte ghosts ([1]; competitor against insulin-F binding, indicates the binding is GLUT specific): could be inhibited

Compound: insulin [free insulin]
time blood glucose level maintained within the normal range (<200 mg/dL) [2]: three

binding to erythrocyte ghost membrane ([1]; erythrocyte ghosts as the model of glucose transporter): able to bind to membrane
Compound: insulin-forskolin: insulin conjugated via Traut's reagent thiol and SMCC crosslinker to amino-functionalized forskolin, a GLUT inhibitor
solubility at pH 7.4 [3]: insoluble
blood-glucose-regulating ability in multiple glucose tolerance test [4]: long-lasting blood-glucose-regulating ability
long-lasting behavior by living imaging [5]: long-lasting behavior of insulin-F was further confirmed
